Read-outs that look alike come from different tables or passages of the source. *1 amine or outer side, *2 acyl side, *3 side chain or, on linkers, in order; H or OH if unused. Where a SMILES comes first, the peptide text is derived from it. Bridges are numbered along the chain shown (N, C = ends). [ ]: non-standard residue; d: D form. The star is where a group is joined. hTyr(3S-OH,4S-OH,3'-OSO3H) = N[C@H](C(=O)O)[C@H](O)[C@@H](O)c1ccc(O)c(OS(=O)(=O)O)c1; Orn(4R-OH,5R-OH) = O=C([C@H](C[C@@H](O)[C@@H](O)N[*:3])N[*:1])[*:2]; Pro(3S-OH,4S-Me) = C[C@H]1CN[C@H](C(=O)O)[C@H]1O; X1 = CCCCCOc1ccc(-c2cc(-c3ccc(C(=O)*)cc3)no2)cc1; Gln(3R-OH) = NC(=O)C[C@@H](O)[C@H](N)C(=O)O; Hyp = O=C(O)[C@@H]1C[C@@H](O)CN1
Assay: Micafungin concentrations in cerebrospinal fluid of infants with Candida meningitis (HPLC)
Type: in vivo
Conditions: human, iv; for Kp at 1 h / Kp at 8 h / Kp: CSF (ratio to plasma); for Kp at 1 h: read-out: CSF/plasma ratio after 1 h; for Kp at 8 h: read-out: CSF/plasma ratio after 8 h; for Kp: read-out: CSF/plasma ratio before infusion; for level at 1 h / level at 8 h / level at -1 h: cerebrospinal fluid, HPLC; for level at 1 h: read-out: CSF values after 1 h; for level at 8 h: read-out: CSF values after 8 h; for level at -1 h: read-out: CSF values before infusion
Method: Micafungin plasma and CSF concentrations were measured 1 h before and 1, 2, and 8 h after the end of the infusion. Sampling overlapped with those required for the clinical monitoring of these critical children. Blood samples were collected via heel puncture, using 0.3 mL capillary microtubes with EDTA, between Days 3 and 10 of micafungin therapy. Five minutes prior to sampling, the heel was warmed with a hot compress (40 °C), and puncture was performed using a Gentleheel incision device (Cardinal Health, Dublin, OH, USA) at alternate sites per timepoint. Blood picked up was centrifuged at 3000× g, and the plasma residue was stored at 4 °C until analyzed within 6 h or frozen at −20 °C and analyzed within 7 days, as previously reported. Drug concentrations were measured via high-performance liquid chromatography (HPLC). An HPLC method with a diode array detector was validated to fine-tune the measurement on small amounts of plasma (0.3 mL whole blood). […]

[1] = 7 mg/kg/day, Patient 1, dose 7 mg/kg/day iv
[2] = 8 mg/kg/day, Patient 3, dose 8 mg/kg/day iv
[3] = 10 mg/kg/day, Patient 1, dose 10 mg/kg/day iv
[4] = 10 mg/kg/day, Patient 2, dose 10 mg/kg/day iv
[5] = 15 mg/kg/day, Patient 2, dose 15 mg/kg/day iv

Q: Which results are given for `CCCCCOc1ccc(-c2cc(-c3ccc(C(=O)N[C@H]4C[C@@H](O)[C@@H](O)NC(=O)[C@@H]5[C@@H](O)[C@@H](C)CN5C(=O)[C@H]([C@H](O)CC(N)=O)NC(=O)[C@H]([C@H](O)[C@@H](O)c5ccc(O)c(OS(=O)(=O)O)c5)NC(=O)[C@@H]5C[C@@H](O)CN5C(=O)[C@H]([C@@H](C)O)NC4=O)cc3)no2)cc1` [micafungin] (X1-[Orn(4R-OH,5R-OH)]T[Hyp][hTyr(3S-OH,4S-OH,3'-OSO3H)][Gln(3R-OH)][Pro(3S-OH,4S-Me)]; lactam 1-C)?
A: Kp at 1 h [1]: 0.01; Kp at 8 h [1]: 0.02; Kp [1]: 0.05; Kp at 1 h [2]: 0.06; Kp at 8 h [2]: 0.08; Kp [2]: 0.22; Kp at 1 h [3]: 0.06; Kp at 8 h [3]: 0.19; Kp [3]: 0.38; Kp at 1 h [4]: 0.03; Kp at 8 h [4]: 0.03; Kp [4]: 0.06; Kp at 1 h [5]: 0.05; Kp at 8 h [5]: 0.07; Kp [5]: 0.16; level at 1 h [1]: 150 ng/mL; level at 8 h [1]: 150 ng/mL; level at -1 h [1]: 150 ng/mL; level at 1 h [2]: 1700 ng/mL; level at 8 h [2]: 1300 ng/mL; level at -1 h [2]: 2000 ng/mL; level at 1 h [3]: 1230 ng/mL; level at 8 h [3]: 1230 ng/mL; level at -1 h [3]: 1230 ng/mL; level at 1 h [4]: 500 ng/mL; level at 8 h [4]: 300 ng/mL; level at -1 h [4]: 400 ng/mL; level at 1 h [5]: 1100 ng/mL; level at 8 h [5]: 800 ng/mL; level at -1 h [5]: 900 ng/mL

From publication PMC10051811, “Plasma and Cerebrospinal Fluid Concentrations of Micafungin Administered at High Doses in Critically Ill Infants with Systemic Candidiasis: A Pooled Analysis of Two Studies” (Pharmaceuticals, 2023)
